Reference: BindingDB's records for doi:10.1021/acs.jmedchem.6b01065 (2017)

Molecular target: T1, Mineralocorticoid receptor (Homo sapiens, UniProt P08235)
T1 sequence (P08235 whole entry): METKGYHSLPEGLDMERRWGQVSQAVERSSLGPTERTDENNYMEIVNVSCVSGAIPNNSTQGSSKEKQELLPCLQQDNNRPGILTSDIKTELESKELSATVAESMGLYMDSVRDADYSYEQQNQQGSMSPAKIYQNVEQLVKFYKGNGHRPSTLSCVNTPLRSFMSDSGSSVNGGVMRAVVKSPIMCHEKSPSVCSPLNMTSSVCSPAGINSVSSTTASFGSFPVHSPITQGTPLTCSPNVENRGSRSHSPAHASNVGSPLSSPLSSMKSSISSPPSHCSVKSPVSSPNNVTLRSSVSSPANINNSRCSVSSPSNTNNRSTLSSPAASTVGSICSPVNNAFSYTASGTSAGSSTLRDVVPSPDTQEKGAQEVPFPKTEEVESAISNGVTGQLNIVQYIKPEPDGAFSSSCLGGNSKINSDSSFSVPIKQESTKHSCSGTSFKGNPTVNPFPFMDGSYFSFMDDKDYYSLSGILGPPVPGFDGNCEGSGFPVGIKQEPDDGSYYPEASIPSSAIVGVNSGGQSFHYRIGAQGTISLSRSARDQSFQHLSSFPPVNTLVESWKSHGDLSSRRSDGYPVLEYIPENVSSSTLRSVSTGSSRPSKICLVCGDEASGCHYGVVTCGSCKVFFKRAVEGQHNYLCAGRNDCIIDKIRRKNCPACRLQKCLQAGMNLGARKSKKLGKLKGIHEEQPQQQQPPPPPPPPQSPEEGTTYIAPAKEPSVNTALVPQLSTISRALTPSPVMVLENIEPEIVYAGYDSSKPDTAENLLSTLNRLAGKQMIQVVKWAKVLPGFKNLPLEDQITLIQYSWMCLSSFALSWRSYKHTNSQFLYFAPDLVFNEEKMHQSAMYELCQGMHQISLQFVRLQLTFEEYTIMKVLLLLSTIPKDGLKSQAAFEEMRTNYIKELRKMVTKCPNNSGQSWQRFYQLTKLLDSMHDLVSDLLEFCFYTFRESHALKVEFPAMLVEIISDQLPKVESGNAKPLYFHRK
Experiment: Antagonist activity at Gal4-fused human MR LBD (671 to 984 residues) expressed in African Green Monkey CV-1 cells assessed as inhibition of aldosterone-induced transactivation activity after 20 hrs by luciferase reporter gene assay

Cc1c(C(=O)Nc2ccc(S(C)(=O)=O)cc2)cc(CCO)n1-c1ccc(Cl)cc1C(F)(F)F
IC50: 3.7 nM
